Laboratory results published in ChEMBL document CHEMBL5465560, “Selectivity Literature for EUbOPEN Chemogenomic Library” (2024).

Assays:
[1] = target: T1, Serine/threonine-protein kinase STK11 (Homo sapiens) (UniProt Q15831); test: Selectivity interaction (KinomeScan (DiscoverX)) EUB0001049a STK11; conditions: at 1 µM
T1 sequence (whole entry): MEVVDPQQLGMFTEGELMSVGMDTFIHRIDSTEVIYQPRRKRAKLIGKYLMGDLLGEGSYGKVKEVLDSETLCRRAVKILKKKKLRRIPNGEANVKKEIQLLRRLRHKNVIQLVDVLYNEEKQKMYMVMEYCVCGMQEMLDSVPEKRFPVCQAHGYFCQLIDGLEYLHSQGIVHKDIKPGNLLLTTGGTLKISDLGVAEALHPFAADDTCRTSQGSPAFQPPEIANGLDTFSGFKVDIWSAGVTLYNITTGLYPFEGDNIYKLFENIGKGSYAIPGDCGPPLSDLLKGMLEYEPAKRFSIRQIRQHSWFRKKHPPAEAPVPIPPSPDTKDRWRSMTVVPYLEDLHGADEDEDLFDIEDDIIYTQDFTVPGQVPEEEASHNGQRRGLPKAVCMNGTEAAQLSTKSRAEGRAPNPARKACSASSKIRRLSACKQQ

Misshapen-like kinase 1 = Misshapen-like kinase 1 (Homo sapiens, UniProt Q8N4C8); test: Selectivity interaction (KinomeScan (DiscoverX)) EUB0000229b MINK1; conditions: at 10 µM
Chain of Misshapen-like kinase 1 (Q8N4C8 whole entry, looked up): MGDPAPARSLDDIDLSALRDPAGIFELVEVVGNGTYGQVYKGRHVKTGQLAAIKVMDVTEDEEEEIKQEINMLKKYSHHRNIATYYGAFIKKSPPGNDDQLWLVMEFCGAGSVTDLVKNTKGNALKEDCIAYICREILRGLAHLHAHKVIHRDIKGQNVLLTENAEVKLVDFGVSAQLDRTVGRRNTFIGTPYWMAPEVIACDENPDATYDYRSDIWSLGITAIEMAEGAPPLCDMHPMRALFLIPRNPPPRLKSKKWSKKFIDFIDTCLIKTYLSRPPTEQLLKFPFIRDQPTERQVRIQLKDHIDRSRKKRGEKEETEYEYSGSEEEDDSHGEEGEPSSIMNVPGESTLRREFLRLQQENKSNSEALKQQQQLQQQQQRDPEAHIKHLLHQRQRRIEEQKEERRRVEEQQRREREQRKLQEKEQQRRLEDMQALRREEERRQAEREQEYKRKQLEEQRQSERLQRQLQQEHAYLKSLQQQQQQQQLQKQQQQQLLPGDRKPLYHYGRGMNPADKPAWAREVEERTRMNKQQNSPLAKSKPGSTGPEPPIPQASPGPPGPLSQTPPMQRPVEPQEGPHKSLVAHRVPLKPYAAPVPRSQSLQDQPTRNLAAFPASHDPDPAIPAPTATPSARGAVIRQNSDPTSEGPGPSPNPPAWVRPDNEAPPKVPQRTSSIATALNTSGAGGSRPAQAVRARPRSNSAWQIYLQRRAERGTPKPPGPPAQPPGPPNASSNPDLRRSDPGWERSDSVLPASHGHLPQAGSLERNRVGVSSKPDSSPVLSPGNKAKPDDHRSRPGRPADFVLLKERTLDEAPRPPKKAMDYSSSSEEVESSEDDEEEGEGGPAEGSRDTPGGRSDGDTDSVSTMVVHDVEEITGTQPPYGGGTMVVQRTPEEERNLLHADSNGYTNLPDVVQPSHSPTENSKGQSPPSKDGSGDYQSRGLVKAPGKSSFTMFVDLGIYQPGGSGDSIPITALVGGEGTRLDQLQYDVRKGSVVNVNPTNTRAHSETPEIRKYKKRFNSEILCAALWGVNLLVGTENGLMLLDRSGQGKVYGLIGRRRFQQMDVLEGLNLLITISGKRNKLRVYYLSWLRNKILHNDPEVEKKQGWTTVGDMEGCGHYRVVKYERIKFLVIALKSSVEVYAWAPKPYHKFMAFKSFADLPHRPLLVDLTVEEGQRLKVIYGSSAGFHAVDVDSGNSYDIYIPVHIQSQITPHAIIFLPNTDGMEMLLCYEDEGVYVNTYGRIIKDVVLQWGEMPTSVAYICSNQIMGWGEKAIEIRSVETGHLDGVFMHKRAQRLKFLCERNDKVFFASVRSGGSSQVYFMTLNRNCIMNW

[2] = target: Ribosomal protein S6 kinase alpha-1 (Homo sapiens, UniProt Q15418); test: Selectivity interaction (Kinase screening (Nanosyn)) EUB0000604a RPS6KA1
Chain of Ribosomal protein S6 kinase alpha-1 (Q15418 whole entry): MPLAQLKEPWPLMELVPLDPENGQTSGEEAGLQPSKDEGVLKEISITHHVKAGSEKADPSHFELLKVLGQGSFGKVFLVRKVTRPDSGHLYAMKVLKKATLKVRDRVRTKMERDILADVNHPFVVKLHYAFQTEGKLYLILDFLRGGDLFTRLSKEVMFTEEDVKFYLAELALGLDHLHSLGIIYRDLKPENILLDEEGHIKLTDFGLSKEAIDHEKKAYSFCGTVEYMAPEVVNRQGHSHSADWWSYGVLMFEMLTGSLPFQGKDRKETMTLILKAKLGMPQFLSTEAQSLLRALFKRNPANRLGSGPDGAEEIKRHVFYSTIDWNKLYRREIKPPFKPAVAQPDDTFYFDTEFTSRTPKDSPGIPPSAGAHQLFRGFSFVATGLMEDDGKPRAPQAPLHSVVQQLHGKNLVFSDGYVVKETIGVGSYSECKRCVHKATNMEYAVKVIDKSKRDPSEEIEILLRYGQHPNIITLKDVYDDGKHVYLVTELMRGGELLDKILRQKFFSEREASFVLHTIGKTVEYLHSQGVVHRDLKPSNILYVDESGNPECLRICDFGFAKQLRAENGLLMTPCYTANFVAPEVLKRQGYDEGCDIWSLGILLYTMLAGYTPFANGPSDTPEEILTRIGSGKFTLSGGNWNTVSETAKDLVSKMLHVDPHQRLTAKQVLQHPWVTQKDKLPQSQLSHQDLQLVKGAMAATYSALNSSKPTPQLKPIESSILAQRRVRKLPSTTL

[3] = target: T2, Histone-lysine N-methyltransferase EHMT2 (Homo sapiens) (UniProt Q96KQ7); test: Selectivity interaction (Methyltransferase screen (radiometric assays, panel of 8 PRMTs, 21 protein lysine methyltransferases, 3 DNA methyltransferases, and one RNA methyltransferase)) EUB0000272b EHMT2
T2 sequence (whole entry): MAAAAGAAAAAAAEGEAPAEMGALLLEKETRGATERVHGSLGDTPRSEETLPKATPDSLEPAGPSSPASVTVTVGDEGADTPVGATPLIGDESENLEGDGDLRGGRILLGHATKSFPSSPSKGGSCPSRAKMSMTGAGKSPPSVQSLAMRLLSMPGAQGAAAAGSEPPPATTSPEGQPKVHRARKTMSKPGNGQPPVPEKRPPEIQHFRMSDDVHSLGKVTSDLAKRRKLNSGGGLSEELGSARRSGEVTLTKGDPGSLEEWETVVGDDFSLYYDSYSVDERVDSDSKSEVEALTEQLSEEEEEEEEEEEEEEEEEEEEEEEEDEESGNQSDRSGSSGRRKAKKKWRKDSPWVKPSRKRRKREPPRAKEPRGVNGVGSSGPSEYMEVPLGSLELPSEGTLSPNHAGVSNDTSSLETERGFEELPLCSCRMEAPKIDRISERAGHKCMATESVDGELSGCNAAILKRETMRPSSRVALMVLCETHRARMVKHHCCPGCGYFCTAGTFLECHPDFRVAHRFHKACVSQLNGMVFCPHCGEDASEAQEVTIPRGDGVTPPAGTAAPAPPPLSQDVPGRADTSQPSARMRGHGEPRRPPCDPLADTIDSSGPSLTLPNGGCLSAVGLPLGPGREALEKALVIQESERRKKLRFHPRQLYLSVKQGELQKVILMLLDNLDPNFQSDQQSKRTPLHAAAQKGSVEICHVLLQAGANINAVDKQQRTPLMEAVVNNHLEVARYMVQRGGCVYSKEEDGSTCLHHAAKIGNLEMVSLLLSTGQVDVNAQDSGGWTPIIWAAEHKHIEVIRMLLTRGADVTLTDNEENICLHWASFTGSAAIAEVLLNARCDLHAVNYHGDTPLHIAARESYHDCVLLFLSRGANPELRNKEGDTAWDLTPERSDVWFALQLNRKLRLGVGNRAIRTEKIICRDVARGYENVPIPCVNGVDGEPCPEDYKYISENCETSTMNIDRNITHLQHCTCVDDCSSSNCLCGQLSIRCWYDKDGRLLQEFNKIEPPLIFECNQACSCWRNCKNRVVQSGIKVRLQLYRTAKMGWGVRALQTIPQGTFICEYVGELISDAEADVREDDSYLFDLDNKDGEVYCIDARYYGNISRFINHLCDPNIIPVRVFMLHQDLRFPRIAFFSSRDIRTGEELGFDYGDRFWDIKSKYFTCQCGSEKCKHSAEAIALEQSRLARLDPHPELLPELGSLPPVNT

In the case of `COc1cc(Nc2nc(C)cc(-c3cnn4nc(OC)ccc34)n2)cc(C(F)(F)F)c1`, the % of control [1] is reported as 100%.

With `COc1cc(N(C)c2ccnc3ccc(C(F)(F)F)cc23)cc(OC)c1OC` the % binding (Misshapen-like kinase 1) was 68%.

With `Cc1cnc(Nc2ccc(F)cc2Cl)nc1-c1c[nH]c(C(=O)N[C@H](CO)c2cccc(Cl)c2)c1` the % of inhibition [2] was 4%.

`Cc1cc(C)cc([C@H]2c3cc(C)ccc3NC(=O)CN2C(=O)c2ccc(Br)s2)c1` showed a % of activity ([3]; at 1 µM) of 95.7% and a % of activity ([3]; at 10 µM) of 98.3%.
